Experimental data published in PMC8400955 (Pharmaceuticals, 2021).
Where two headings read alike, the source gives them in different places.

Experiments:
CYP2B6 = test: CYP induction (enzyme activity) in cryopreserved human hepatocytes, CYP2B6; details: for fold induction at 72 h, 1000 µM / fold induction at 72 h, 30 µM: human, plated cryopreserved human hepatocytes; for Percent of Control / fold induction at 72 h, 30 µM: 30 µM
Experimental: (§1) The UPLC–MS/MS (SHIMADZU, LC-30AD) equipped with waters Xselect®HSS T3 2.5 μm (2.1 × 50 mm) was used to detect the marker metabolites in the enzyme activity assay. The fold-induction enzyme activity was determined using the ratio calculation (the calculation details are available in the Supplementary Materials).
(§2) CYP activity was expressed as pmol/min/million cells where pmol was defined as the amount of metabolite formed during the reaction. […] The fold-induction enzyme activity was determined by the ratio:
(§3) Fold of induction = CYP activity(induced) / CYP activity(vehicle)
(§4) % of positive control = (𝑪𝒀𝑷 𝒂𝒄𝒕𝒊𝒗𝒊𝒕𝒚(𝒊𝒏𝒅𝒖𝒄𝒆𝒅)ି 𝑪𝒀𝑷 𝒂𝒄𝒕𝒊𝒗𝒊𝒕𝒚(𝑫𝑴𝑺𝑶))(𝑪𝒀𝑷 𝒂𝒄𝒕𝒊𝒗𝒊𝒕𝒚(𝒑𝒐𝒔𝒊𝒕𝒊𝒗𝒆 𝒄𝒐𝒏𝒕𝒓𝒐𝒍)ି 𝑪𝒀𝑷 𝒂𝒄𝒕𝒊𝒗𝒊𝒕𝒚(𝑫𝑴𝑺𝑶))х 𝟏𝟎𝟎 Based on the enzyme activity, a minimum of 2-fold increase of a response compared to vehicle control and ≥ 20% of the positive control was considered as the cutoff for a positive signal in in vitro induction

CYP1A2 = test: CYP induction (enzyme activity) in cryopreserved human hepatocytes, CYP1A2; details: for Percent of Control / fold induction at 72 h, 30 µM: 30 µM; for fold induction at 72 h, 30 µM / fold induction at 72 h, 50 µM: human, plated cryopreserved human hepatocytes
Experimental: as §1, §2, §3, §4

CYP3A4 = test: CYP induction (enzyme activity) in cryopreserved human hepatocytes, CYP3A4; assay type: in vitro ADME; details: 30 µM; for fold induction at 72 h, 30 µM: human, plated cryopreserved human hepatocytes
[1] = Bidirectional permeability across Caco-2 cell monolayers; assay type: in vitro ADME; details: human; for recovery at 120 min, 5 μM: Caco-2, Caco-2, 5 μM; for Papp A→B at 120 min, 5 μM / Papp B→A at 120 min, 5 μM / efflux ratio at 120 min, 5 μM: Caco-2, 5 μM
Experimental: The bidirectional permeability and absorption mechanism of ZB716 was evaluated across Caco-2 cell monolayers.
The apical-to-basolateral (A–B) and basolateral-to-apical (B–A) transport of ZB716 in HBSS (25 mM HEPES) with 1% BSA was measured across Caco-2 cell monolayers. […] All incubations were performed in triplicate, and the integrity of the cell monolayers was confirmed using the marker Lucifer yellow.
The slope, k, was determined by linear
using the following equation: […]
1.4 Intestinal Mucosal Permeation of ZB716
Papp= VAArea х timeх ሾdrugሿreceiverሾdrugሿinitial,donor

`CCC1(c2ccccc2)C(=O)NC(=O)NC1=O` [Phenobarbital, phenobarbital, reference compound] gave a fold induction at 72 h, 1000 µM (CYP2B6; donor one) of 5.44 ± 0.13, a fold induction at 72 h, 1000 µM (CYP2B6; donor three) of 6.29 ± 0.9 and a fold induction at 72 h, 1000 µM (CYP2B6; donor two) of 6.86 ± 0.36.
For `CCOC(=O)c1ncn2c1CN(C)C(=O)c1cc(F)ccc1-2` [Flumazenil, flumazenil, reference compound], the “Percent of Control” value (CYP1A2; donor one) was −2.20%, the “Percent of Control” value (CYP1A2; donor three) was −3.60% and the “Percent of Control” value (CYP1A2; donor two) was 0.450%. It also gave a fold induction at 72 h, 30 µM (CYP1A2; donor one) of 0.818 ± 0.032, a fold induction at 72 h, 30 µM (CYP1A2; donor three) of 0.807 ± 0.177 and a fold induction at 72 h, 30 µM (CYP1A2; donor two) of 1.06 ± 0.11. For the same compound, the “Percent of Control” value (CYP2B6; donor one) was 3.77%, the “Percent of Control” value (CYP2B6; donor three) was 5.23% and the “Percent of Control” value (CYP2B6; donor two) was −3.61%. It also gave a fold induction at 72 h, 30 µM (CYP2B6; donor one) of 1.17 ± 0.04, a fold induction at 72 h, 30 µM (CYP2B6; donor three) of 1.28 ± 0.2 and a fold induction at 72 h, 30 µM (CYP2B6; donor two) of 0.789 ± 0.07. The “Percent of Control” value (CYP3A4; donor one) was 1.16%, the “Percent of Control” value (CYP3A4; donor three) was 3.11% and the “Percent of Control” value (CYP3A4; donor two) was 4.37%. For the same compound, the fold induction at 72 h, 30 µM (CYP3A4; donor one) was 1.06 ± 0.09, the fold induction at 72 h, 30 µM (CYP3A4; donor three) was 1.23 ± 0.09 and the fold induction at 72 h, 30 µM (CYP3A4; donor two) was 1.39 ± 0.04.
Work on `Nc1cc(N2CCCCC2)nc(N)[n+]1[O-]` [Minoxidil, minoxidil, reference compound] yielded a recovery at 120 min, 5 μM ([1]; read-out: Recovery A to B) of 91 ± 1.4%, a recovery at 120 min, 5 μM ([1]; read-out: Recovery B to A) of 94.4 ± 48% and a Papp A→B at 120 min, 5 μM [1] of 64.7 ± 2.2 nm/s. The Papp B→A at 120 min, 5 μM [1] was 74.4 ± 4.7 nm/s and the efflux ratio at 120 min, 5 μM [1] was 1.15 ± 0.09.
`COc1ccc2[nH]c([S+]([O-])Cc3ncc(C)c(OC)c3C)nc2c1` (stereo not shown) [Omeprazole, omeprazole, reference compound] gave a fold induction at 72 h, 50 µM (CYP1A2; donor one) of 9.28 ± 0.223, a fold induction at 72 h, 50 µM (CYP1A2; donor three) of 6.37 ± 0.14 and a fold induction at 72 h, 50 µM (CYP1A2; donor two) of 15 ± 1.8.
Work on `C[C@H]1O[C@@H](O[C@H]2[C@@H](O)C[C@H](O[C@H]3[C@@H](O)C[C@H](O[C@H]4CC[C@@]5(C)[C@H](CC[C@@H]6[C@@H]5C[C@@H](O)[C@]5(C)[C@@H](C7=CC(=O)OC7)CC[C@]65O)C4)O[C@@H]3C)O[C@@H]2C)C[C@H](O)[C@@H]1O` [Digoxin, digoxin, reference compound] yielded a recovery at 120 min, 5 μM ([1]; read-out: Recovery A to B) of 92.4 ± 1%, a recovery at 120 min, 5 μM ([1]; read-out: Recovery B to A) of 86 ± 6% and a Papp A→B at 120 min, 5 μM [1] of 6.87 ± 0.88 nm/s. The Papp B→A at 120 min, 5 μM [1] was 145 ± 16.8 nm/s and the efflux ratio at 120 min, 5 μM [1] was 21.2 ± 2.
